Test results reported in patent US5580904A, “Formamido and carboxyamido compounds which can be retained in brain” (Drug Delivery System Institute, Ltd., priority 1992, dated 1996).
Where a name gives a salt, the structure may show the parent alone. Read-outs that look alike come from different tables or passages of the source.

Format: in vivo
Conditions: 5 mg/kg on the basis of DOPA, into the femoral vein, SD rats
Protocol: The distribution and residence in brain of the compounds according to the present invention were evaluated as follows.
Blood samples were taken out from abdominal aorta after a certain period of […]. Immediately after the exsanguination, whole brain was removed. Experiments were carried out with 3 rats at each blood sampling point.
The DOPA concentration in the whole brain was determined in accordance with the method "New Biochemical Experiment Course, Vol. 11, Neurobiochemistry,p. 289-290 (edited by Biochemical Society, Japan, published by Tokyo Kagaku-Dojin, 1990)." As the controls, the Boc-eliminated Compound D and DOPA were administered in the same manner as above to determine the DOPA concentration.

SMILES	Area under the curve of concentration (AUC) of DOPA in brain (Time 0-4 hr)	Area under the curve of concentration (AUC) of DOPA in brain (Time 0-2 hr)
C=CCSS/C(CCOC(=O)C(N)Cc1ccc(OC(=O)C(C)(C)C)c(OC(=O)C(C)(C)C)c1)=C(/C)N(C=O)Cc1cnc(C)nc1N (stereo not drawn) [35 (b), N-[(4-amino-2-methyl-5-pyrimidyl)methyl]-N-[4-[2-amino-3-(3,4-dipivaloyloxyphenyl)propionyl]oxy-1-methyl-2-[(2-propenyl)dithio]-1-butenyl]formamide]	10626 ng·min/g	–
CC(=C(CCOC(=O)[C@@H](N)Cc1ccc(OC(=O)C(C)(C)C)c(OC(=O)C(C)(C)C)c1)SSC(C)C)N(C)C=O [3 (b)]	82476 ng·min/g	–
N[C@@H](Cc1ccc(O)c(O)c1)C(=O)O [DOPA, 3,4-dihydroxy phenylalanine, reference compound]	6035 ng·min/g	6035 ng·min/g
C/C(=C(\CCOC(=O)C(N)Cc1ccc(OC(=O)C(C)(C)C)c(OC(=O)C(C)(C)C)c1)SSC(C)C)N(C=O)Cc1cnc(C)nc1N (stereo not drawn) [Example 30 (b), N-[(4-amino-2-methyl-5-pyrimidyl)methyl]-N-[4-[2-amino-3-(3,4-dipivaloyloxyphenyl)propionyl]oxy-1-methyl-2-[(2-propyl)dithio]-1-butenyl]formamide hydrochloride]	–	34595 ng·min/g
C/C(=C(\CCOC(=O)C(N)Cc1ccc(OC(=O)C(C)(C)C)c(OC(=O)C(C)(C)C)c1)SSCC1CCCO1)N(C=O)Cc1cnc(C)nc1N (stereo not drawn) [29 (b), N-[(4-amino-2-methyl-5-pyrimidyl)methyl]-N-[4-[2-amino-3-(3,4-dipivaloyloxyphenyl)propionyl]oxy-1-methyl-2-[(tetrahydrofurfuryl)dithio]-1-butenyl]formamide]	7151 ng·min/g	6659 ng·min/g
CC(C)(C)C(=O)Oc1ccc(C[C@H](N)C(=O)O)cc1OC(=O)C(C)(C)C [Boc-elimination of Compound D, reference compound]	3277 ng·min/g	3169 ng·min/g
